± gives the expanded uncertainty stated by the source.
Settings: Liquid, Vibrating wire viscometry

FC(F)(F)/C=C/Cl [(E)-1-chloro-3,3,3-trifluoroprop-1-ene]
Settings | viscosity [mPa·s]
243.14 K, 5000 kPa | 0.5536 ± 0.012
243.15 K, 200 kPa | 0.5325 ± 0.012
243.15 K, 1000 kPa | 0.542 ± 0.012
243.15 K, 10000 kPa | 0.5859 ± 0.013
243.15 K, 20000 kPa | 0.6281 ± 0.014
243.15 K, 30000 kPa | 0.6899 ± 0.015
243.15 K, 40000 kPa | 0.7324 ± 0.016
253.14 K, 20000 kPa | 0.5583 ± 0.013
253.15 K, 200 kPa | 0.4733 ± 0.011
253.15 K, 1000 kPa | 0.4782 ± 0.011
253.15 K, 5000 kPa | 0.4887 ± 0.011
253.15 K, 10000 kPa | 0.5179 ± 0.012
253.15 K, 30000 kPa | 0.6008 ± 0.013
253.15 K, 40000 kPa | 0.6521 ± 0.014
263.14 K, 200 kPa | 0.4168 ± 0.0097
263.15 K, 1000 kPa | 0.4194 ± 0.0098
263.15 K, 5000 kPa | 0.433 ± 0.01
263.15 K, 10000 kPa | 0.455 ± 0.01
263.15 K, 20000 kPa | 0.4998 ± 0.011
263.15 K, 30000 kPa | 0.539 ± 0.012
263.16 K, 40000 kPa | 0.5767 ± 0.013
273.14 K, 30000 kPa | 0.4792 ± 0.011
273.15 K, 200 kPa | 0.3733 ± 0.0089
273.15 K, 1000 kPa | 0.3741 ± 0.0089
273.15 K, 5000 kPa | 0.3892 ± 0.0092
273.15 K, 10000 kPa | 0.4091 ± 0.0096
273.15 K, 20000 kPa | 0.4448 ± 0.01
273.15 K, 40000 kPa | 0.5197 ± 0.012
283.14 K, 200 kPa | 0.3347 ± 0.0082
283.14 K, 10000 kPa | 0.3688 ± 0.0088
283.15 K, 1000 kPa | 0.3363 ± 0.0082
283.15 K, 5000 kPa | 0.351 ± 0.0085
283.15 K, 20000 kPa | 0.4033 ± 0.0095
283.15 K, 30000 kPa | 0.4368 ± 0.01
283.15 K, 40000 kPa | 0.4708 ± 0.011
293.14 K, 20000 kPa | 0.3656 ± 0.0088
293.14 K, 40000 kPa | 0.428 ± 0.0099
293.15 K, 200 kPa | 0.3004 ± 0.0076
293.15 K, 1000 kPa | 0.3033 ± 0.0076
293.15 K, 5000 kPa | 0.316 ± 0.0079
293.15 K, 10000 kPa | 0.3332 ± 0.0082
293.15 K, 30000 kPa | 0.3971 ± 0.0094
303.15 K, 200 kPa | 0.2719 ± 0.0071
303.15 K, 1000 kPa | 0.2743 ± 0.0071
303.15 K, 5000 kPa | 0.2874 ± 0.0073
303.15 K, 10000 kPa | 0.3033 ± 0.0076
303.15 K, 20000 kPa | 0.3337 ± 0.0082
303.15 K, 30000 kPa | 0.3635 ± 0.0087
303.16 K, 40000 kPa | 0.393 ± 0.0093
313.15 K, 300 kPa | 0.2464 ± 0.0066
313.15 K, 10000 kPa | 0.2767 ± 0.0072
313.15 K, 20000 kPa | 0.3058 ± 0.0077
313.15 K, 30000 kPa | 0.3337 ± 0.0082
313.15 K, 40000 kPa | 0.3611 ± 0.0087
313.16 K, 1000 kPa | 0.2489 ± 0.0067
313.16 K, 5000 kPa | 0.2611 ± 0.0069
323.14 K, 40000 kPa | 0.3345 ± 0.0082
323.15 K, 400 kPa | 0.2243 ± 0.0062
323.15 K, 1000 kPa | 0.2267 ± 0.0063
323.15 K, 5000 kPa | 0.2393 ± 0.0065
323.15 K, 10000 kPa | 0.254 ± 0.0068
323.15 K, 20000 kPa | 0.2819 ± 0.0072
323.15 K, 30000 kPa | 0.3084 ± 0.0077
333.15 K, 500 kPa | 0.2047 ± 0.0059
333.15 K, 1000 kPa | 0.2069 ± 0.006
333.15 K, 5000 kPa | 0.2192 ± 0.0062
333.15 K, 10000 kPa | 0.2344 ± 0.0064
333.15 K, 20000 kPa | 0.262 ± 0.0069
333.15 K, 30000 kPa | 0.2888 ± 0.0074
333.15 K, 40000 kPa | 0.3147 ± 0.0078
343.14 K, 30000 kPa | 0.2702 ± 0.007
343.14 K, 40000 kPa | 0.2946 ± 0.0075
343.15 K, 600 kPa | 0.1887 ± 0.0057
343.15 K, 1000 kPa | 0.1903 ± 0.0057
343.15 K, 5000 kPa | 0.2029 ± 0.0059
343.15 K, 10000 kPa | 0.2179 ± 0.0061
343.15 K, 20000 kPa | 0.245 ± 0.0066
353.14 K, 10000 kPa | 0.1999 ± 0.0058
353.14 K, 30000 kPa | 0.2503 ± 0.0067
353.15 K, 5000 kPa | 0.1846 ± 0.0056
353.15 K, 20000 kPa | 0.2277 ± 0.0063
353.15 K, 40000 kPa | 0.2733 ± 0.0071
363.15 K, 5010 kPa | 0.1701 ± 0.0054
363.15 K, 10000 kPa | 0.1845 ± 0.0056
363.15 K, 20000 kPa | 0.2107 ± 0.006
363.15 K, 40000 kPa | 0.257 ± 0.0068
363.16 K, 30000 kPa | 0.2345 ± 0.0064
373.14 K, 40000 kPa | 0.2449 ± 0.0066
373.15 K, 5000 kPa | 0.1581 ± 0.0052
373.15 K, 10000 kPa | 0.1734 ± 0.0054
373.15 K, 20000 kPa | 0.1996 ± 0.0058
373.15 K, 30000 kPa | 0.2229 ± 0.0062

Source: the NIST ThermoML archive (doi:10.1016/j.jct.2018.04.001)
